Where a name gives a salt, the structure may show the parent alone.
Assays:
[1] = format: in vitro ADME; details: simulated gi fluid, 1 µM, pH 1.6
Experimental: This assay was used to assess the stability of a conjugate in a stomach.
Medium was prepared by dissolving 2 g of sodium chloride in 0.6 L in ultrapure water (MilliQ®, Millipore Sigma, Darmstadt, Germany). The pH was adjusted to 1.6 with 1N hydrochloric acid, and the volume was then adjusted to 1 L with purified water.
60 mg FaSSIF powder (Biorelevant™, London, UK) were dissolved in 500 mL buffer (above). Pepsin was added (0.1 mg/mL) (Millipore Sigma, Darmstadt, Germany), and the solution was stirred. The resulting SGF media were used fresh for each experiment.
Test compounds were dissolved in DMSO stock to 1 mM. An aliquot of the DMSO stock solution was removed and diluted in the SGF Media in 15 mL falcon tubes to generate a total compound concentration of 1 μM. A 1 mL aliquot was immediately removed and diluted once with 1 volume of acetonitrile for T0 timepoint. The mixture was sealed and mixed at 37° C. in an incubator. Aliquots (1 mL) were removed at regular intervals and immediately quenched by the addition of 1 volume of acetonitrile. The resulting samples were analyzed by LCMS to determine degradation rates in SGF.

[2] = format: in vitro ADME; details: simulated gi fluid, 1 µM, pH 6.7
Experimental: This assay was used to assess the stability of a conjugate in a small intestine.
Phosphate buffer was prepared by dissolving 0.42 g of sodium hydroxide pellets and 3.95 g of monobasic sodium phosphate monohydrate and 6.19 g of sodium chloride in ultrapure water (MilliQ®, Millipore Sigma, Darmstadt, Germany). The pH was adjusted to 6.7 using aq. HCl and aq. NaOH, as necessary, and the solution was diluted with ultrapure water to produce 1 L of the pH 6.7 buffer.
112 mg FaSSIF powder (Biorelevant™, London, UK) was dissolved in 50 mL of the pH 6.7 buffer. 2 to 3 mL of the resulting solution were then added to 500 mg pancreatin (Millipore Sigma, Darmstadt, Germany). The resulting mixture was agitated by finger tapping the vessel containing the mixture until milky suspension formed. At this time, the remainder of the 50 mL FaSSiF/pH 6.7 buffer solution was added. The resulting suspension was flipped upside down 10 times to produce SIF, which was used fresh.
Test compounds were dissolved in DMSO stock to 1 mM. An aliquot of the DMSO stock solution was removed and diluted in the SIF media in 15 mL falcon tubes to produce a mixture with a tested compound concentration of 1 μM. A 1 mL aliquot was immediately removed and diluted once with 1 volume of acetonitrile for T0 timepoint. The mixture was sealed and agitated at 37° C. in an incubator. Aliquots (1 mL) were removed at regular intervals and immediately quenched by the addition of 1 volume of acetonitrile. The resulting samples were analyzed by LCMS to determine degradation rates.

[3] = format: in vitro ADME; details: 1 µM
Experimental: This assay was used to assess the stability of a conjugate in a large intestine.
All experiments were performed in an anaerobic chamber containing 90% nitrogen, 5% hydrogen and 5% carbon dioxide. Colonic material was resuspended as a slurry (15% w/v final concentration) in pre-reduced, anaerobically sterilized dilution blanks (Anaerobe Systems AS-908). The colonic material was then inoculated into 96 well plates containing YCFAC media (Anaerobe Systems AS-680, 6.7 μL slurry into 1 mL total media). A compound was added to each individual well to reach a final analyte concentration of 1 μM, and the material was mixed by pipetting. Each sample was removed after set timepoints (0, 120, 240, 480, 1440, 2880 minutes after initiation of the assay), quenched with acetonitrile containing internal standard, and analyzed by LCMS.

[4] = target: CutC from Proteus mirabilis (Proteus mirabilis, UniProt B4EYG1); assay: Cell-based assay for TMA production from a native producer (P. mirabilis); details: d9-TMA from 1 mM d9-choline, 5 h, 37° C.; value 10 given when no fit or % TMA remaining at 10 μM higher than 15%; read-out: Average IC50 Whole cell P. mirabilis
Sequence of CutC from Proteus mirabilis (B4EYG1 entry or part of it): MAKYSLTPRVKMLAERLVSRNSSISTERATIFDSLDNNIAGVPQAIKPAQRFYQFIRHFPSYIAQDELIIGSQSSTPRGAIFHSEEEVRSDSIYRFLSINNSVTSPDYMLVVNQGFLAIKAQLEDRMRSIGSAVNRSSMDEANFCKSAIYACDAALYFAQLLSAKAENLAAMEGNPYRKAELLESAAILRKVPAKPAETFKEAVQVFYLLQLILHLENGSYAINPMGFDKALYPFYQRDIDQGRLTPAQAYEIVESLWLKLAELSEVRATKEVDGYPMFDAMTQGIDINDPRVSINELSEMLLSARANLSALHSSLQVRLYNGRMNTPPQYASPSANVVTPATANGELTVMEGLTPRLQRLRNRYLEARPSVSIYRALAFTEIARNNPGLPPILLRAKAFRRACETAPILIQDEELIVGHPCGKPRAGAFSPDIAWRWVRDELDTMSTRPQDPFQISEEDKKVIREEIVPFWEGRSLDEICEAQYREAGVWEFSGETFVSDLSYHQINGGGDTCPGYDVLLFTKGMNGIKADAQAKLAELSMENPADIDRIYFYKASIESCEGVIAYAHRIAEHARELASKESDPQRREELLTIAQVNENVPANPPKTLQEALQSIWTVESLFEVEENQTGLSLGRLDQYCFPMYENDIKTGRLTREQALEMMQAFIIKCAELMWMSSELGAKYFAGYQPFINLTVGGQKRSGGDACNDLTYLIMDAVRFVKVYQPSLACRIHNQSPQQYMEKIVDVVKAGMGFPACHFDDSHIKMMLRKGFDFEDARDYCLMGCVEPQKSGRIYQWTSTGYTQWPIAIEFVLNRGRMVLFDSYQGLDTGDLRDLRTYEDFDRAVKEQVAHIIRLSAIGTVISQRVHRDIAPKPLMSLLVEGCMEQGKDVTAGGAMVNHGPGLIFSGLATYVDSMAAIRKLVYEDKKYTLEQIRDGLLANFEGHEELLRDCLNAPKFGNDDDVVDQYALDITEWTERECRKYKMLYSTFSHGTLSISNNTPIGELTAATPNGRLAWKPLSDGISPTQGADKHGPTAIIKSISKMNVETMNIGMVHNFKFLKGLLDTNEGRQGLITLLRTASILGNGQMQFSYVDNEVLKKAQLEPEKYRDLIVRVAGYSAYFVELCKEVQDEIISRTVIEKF
Sequence of CutC from Proteus mirabilis (B4EYG0 entry or part of it, further chain): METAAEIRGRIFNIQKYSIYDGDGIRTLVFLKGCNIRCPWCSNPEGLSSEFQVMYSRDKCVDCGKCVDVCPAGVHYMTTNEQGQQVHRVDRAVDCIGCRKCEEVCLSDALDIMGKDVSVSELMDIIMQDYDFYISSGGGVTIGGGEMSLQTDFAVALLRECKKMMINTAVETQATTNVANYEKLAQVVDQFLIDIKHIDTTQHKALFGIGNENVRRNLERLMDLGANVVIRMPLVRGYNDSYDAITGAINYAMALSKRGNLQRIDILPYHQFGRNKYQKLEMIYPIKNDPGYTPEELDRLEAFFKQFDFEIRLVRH
How it was run: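 Overnight anaerobic cultures of P. mirabilis or C. sporogenes, grown in BHI with 1 mM choline, were diluted and given 1 mM (trimethyl-d9)-choline plus compound at 10 μM final. After 5 h at 37° C., d9-TMA was quantified by LCMS.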

[5] = test system: CutC/D enzyme; assay: Acute mouse model (plasma TMAO on choline diet); format: in vivo, male C57BL/6 mice
How it was run: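 Male C57BL/6 mice fed a diet with 1.0% choline (g/g) received compound in water by oral gavage once daily on days 1–3. Plasma taken 20 h after the last dose was protein-precipitated and TMAO quantified by LC-MS/MS against a 0.05-100 μM d9-TMAO calibration curve in control plasma.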

[6] = in vivo; set-up: species or system Sprague-Dawley rats; details: Sprague-Dawley, rat
Experimental: Sprague-Dawley rats (three rats per compound) were treated with a single intravenous (IV) 1 mg/kg dose or orally (PO) a single 10 mg/kg dose. Plasma concentrations of the conjugates were determined by LCMS at 5 minutes, 15 minutes, 30 minutes, 1 hour, 2 hours, 4 hours, 8 and 24 hours post compound administration. […] In addition, the plasma exposure and bioavailability of the active agent of was lower when dosed as a conjugate instead of the active agent alone.

[7] = Caco-2 permeability assay; format: in vitro ADME; details: human, Caco-2, pH 7.4
Experimental: Preparation of Caco-2 Cells: 50 μL and 25 mL of cell culture medium were added to each well of the Transwell insert and reservoir, respectively. The HTS transwell plates were incubated at 37° C., 5% CO2 for 1 hour before cell seeding. […] Cell culture medium was replaced every other day, beginning no later than 24 hours after initial plating.
Assessment of Cell Monolayer Integrity: Medium was removed from the reservoir and each Transwell insert and replaced with prewarmed fresh culture medium. Transepithelial electrical resistance (TEER) across the monolayer was measured using Millicell Epithelial Volt-Ohm measuring system (Millipore, USA). The Plate was returned to the incubator once the measurement was done. The TEER value was calculated according to the following equation: […]
Preparation of Solutions: 2 mM stock solutions in DMSO of control compounds were prepared and diluted with HBSS (10 mM HEPES, pH 7.4) to get 10 μM working solution. 0.2 mM stock solutions of test compounds in DMSO were prepared and diluted with HBSS (10 mM HEPES, pH 7.4 with 0.5% BSA) to get 1 μM working solution. Metoprolol, erythromycin and cimetidine were used as control compounds.
The Caco-2 plate was removed from the incubator. The monolayer was washed twice with pre-warmed HBSS (10 mM HEPES, pH 7.4). The plate was incubated at 37° C. for 30 minutes. To determine the rate of drug transport in the apical to basolateral direction, 125 μL of the working solution was added to the Transwell insert (apical compartment). A 50 μL sample was transferred immediately from the apical compartment to 200 μL of acetonitrile containing IS (100 nM alprazolam, 200 nM Caffeine and 100 nM tolbutamide) in a new 96-well plate as the initial donor sample (A-B) and it was vortexed at 1000 rpm for 10 minutes. The wells in the receiver plate (basolateral compartment) were filled with 235 μL of transport buffer. To determine the rate of drug transport in the basolateral to apical direction, 285 μL of the working solution were added to the receiver plate wells (basolateral compartment). A 50 μL sample was transferred immediately from the basolateral compartment to 200 μL of acetonitrile containing IS (100 nM alprazolam, 200 nM Caffeine and 100 nM tolbutamide) in a new 96-well plate as the initial donor sample (B-A) and it was vortexed at 1000 rpm for 10 minutes. The Transwell insert (apical compartment) was filled with 75 μL of transport buffer. The apical to basolateral direction and the basolateral to apical direction need to be done at the same time. The plates were incubated at 37° C. for 2 hours. At the end of the incubation, 50 μL samples from donor sides (apical compartment for Ap→Bl flux, and basolateral compartment for B1→Ap) and receiver sides (basolateral compartment for Ap→Bl flux, and apical compartment for B1→Ap) were transferred to wells of a new 96-well plate, followed by the addition of 4 volume of acetonitrile containing IS (100 nM alprazolam, 200 nM Caffeine and 100 nM tolbutamide). Samples were vortexed for 10 minutes, 50 μL samples were transferred to wells of a new 96-well plate, followed by the addition of 50 μL Hepes and 200 μL IS. All samples were vortexed for 10 minutes, and then centrifuged at 3,220 g for 40 minutes. An aliquot of 150 μL of the supernatant was mixed with an appropriate volume of ultra-pure water before LC-MS/MS analysis.
Apparent permeability (Papp) can be calculated for drug transport assays using the following equation: […]
Papp is apparent permeability (cm/s×10^−6);
Papp (B-A) indicates the apparent permeability coefficient in basolateral to apical direction, and
Papp (A-B) indicates the apparent permeability coefficient in apical to basolateral direction.

C#CC[N+](C)(C)CCO[C@@H]1O[C@H](COC(=O)CCC)[C@@H](OC(=O)CCC)[C@H](OC(=O)CCC)[C@H]1OC(=O)CCC.[I-] [Compound 1, N,N-dimethyl-N-(2-(((2R,3R,4S,5R,6R)-3,4,5-tris(butyryloxy)-6-((butyryloxy)methyl)tetrahydro-2H-pyran-2-yl)oxy)ethyl)prop-2-yn-1-aminium iodide]
Assay 1- FaSSGF Stability: % Remaining at 1 hr [1]: 84.79%
Assay 2- FaSSIF Stability: % Remaining at 4 hr [2]: 30.79%
Assay 3- Colonic Material Stability Assay % Remaining at 24 hr [3]: 80%

C#CC[N+](C)(C)CCO[C@@H]1O[C@H](COC(C)=O)[C@@H](OC(C)=O)[C@H](OC(C)=O)[C@H]1OC(C)=O.[I-] [Compound 7, N,N-dimethyl-N-(2-(((2R,3R,4S,5R,6R)-3,4,5-triacetoxy-6-(acetoxymethyl)tetrahydro-2H-pyran-2-yl)oxy)ethyl)prop-2-yn-1-aminium Iodide]
IC50 [4]: 3.16 µM
% change from vehicle control + choline diet ([5]; Table 4a, 358 mg/kg oral gavage days 1-3): −79.95%
Mean plasma TMAO ([5]; Table 4a, 358 mg/kg oral gavage days 1-3, plasma 20 h after last gavage): 6.90 µM
% change from vehicle control + choline diet ([5]; Table 4c, 35.8 mg/kg oral gavage days 1-3): −2.97%
Mean plasma TMAO ([5]; Table 4c, 35.8 mg/kg oral gavage days 1-3, plasma 20 h after last gavage): 20.4 µM
% change from vehicle control + choline diet ([5]; Table 4c, 107 mg/kg oral gavage days 1-3): −24.83%
Mean plasma TMAO ([5]; Table 4c, 107 mg/kg oral gavage days 1-3, plasma 20 h after last gavage): 15.8 µM
% change from vehicle control + choline diet ([5]; Table 4c, 358 mg/kg oral gavage days 1-3): −69.46%
Mean plasma TMAO ([5]; Table 4c, 358 mg/kg oral gavage days 1-3, plasma 20 h after last gavage): 6.41 µM
Cmax ([6]; iv, 1 mg/kg): 19.7 µM
Cmax ([6]; po, 10 mg/kg): 0.0162 µM
bioavailability ([6]; po, 10 mg/kg): 1.1%
Papp A→B at 2 h, 1 µM [7]: 0.1 ×10⁻⁶ cm/s
Papp B→A at 2 h, 1 µM [7]: 0.15 ×10⁻⁶ cm/s

C#CC[N+](C)(C)CCO[C@@H]1CO[C@H]2[C@@H]1OC[C@@H]2O [Compound 72, N-(2-(((3R,3aR,6S,6aR)-6-hydroxyhexahydrofuro[3,2-b]furan-3-yl)oxy)ethyl)-N,N-dimethylprop-2-yn-1-aminium trifluoroacetate]
IC50 [4]: ≥ 10 µM
Assay 1- FaSSGF Stability: % Remaining at 1 hr [1]: 102.71%
Assay 3- Colonic Material Stability Assay % Remaining at 24 hr [3]: 110%

CC(=O)OC[C@H]1O[C@@H](OCC[N+](C)(CF)C2CC2)[C@H](OC(C)=O)[C@@H](OC(C)=O)[C@@H]1OC(C)=O.[I-] (stereo partly drawn) [Compound 86, N-(fluoromethyl)-N-methyl-N-(2-{[(2R,3R,4S,5R,6R)-3,4,5-tris(acetyloxy)-6-[(acetyloxy)methyl]oxan-2-yl]oxy}ethyl)cyclopropanaminium Iodide]
IC50 [4]: ≥ 10 µM
% change from vehicle control + choline diet ([5]; Table 4g, 37.3 mg/kg oral gavage days 1-3): −33%
Mean plasma TMAO ([5]; Table 4g, 37.3 mg/kg oral gavage days 1-3, plasma 20 h after last gavage): 18.6 µM
% change from vehicle control + choline diet ([5]; Table 4g, 112 mg/kg oral gavage days 1-3): −83%
Mean plasma TMAO ([5]; Table 4g, 112 mg/kg oral gavage days 1-3, plasma 20 h after last gavage): 4.72 µM
Assay 3- Colonic Material Stability Assay % Remaining at 24 hr [3]: 56%

C#CC[N+](C)(C)CC(=O)O[C@@H]1O[C@H](COC(C)=O)[C@@H](OC(C)=O)[C@H](OC(C)=O)[C@H]1OC(C)=O [Compound 303, N,N-dimethyl-N-(2-oxo-2-(((2S,3R,4S,5R,6R)-3,4,5-triacetoxy-6-(acetoxymethyl)tetrahydro-2H-pyran-2-yl)oxy)ethyl)prop-2-yn-1-aminium Trifluoroacetate]
Assay 1- FaSSGF Stability: % Remaining at 1 hr [1]: 60.49%
Assay 2- FaSSIF Stability: % Remaining at 4 hr [2]: 0.03%
Assay 3- Colonic Material Stability Assay % Remaining at 24 hr [3]: 0.16%

Source: patent US20220041641A1, “QUATERNARY AMMONIUM SALTS AS INHIBITORS OF TRIMETHYLAMINE PRODUCTION” (Senda Biosciences, Inc., priority 2018, published 2022)
